Where two headings read alike, the source gives them in different places.
Target: T1, porcine pancreatic elastase (Sus scrofa, UniProt P00772)
T1 construct: purchased Sigma n.E. 0.127
Assay: antielastase activity (method of Bieth and coll., cleavage of N-succinyl-L-alanyl-L-alanyl-L-alanyl-para-nitroanilide, UV at 410 nm)
Type: biochemical
Procedure: The antielastase activity of compounds (I) was evidenced by the method described by Bieth and coll. (Biochim. med. [formula] 350 (1974)), with slight changes when the test compounds were poorly water-soluble.
The determination of the antielastase activity was carried out using porcine pancreatic elastase (90 U/mg/weight; 120 U/mg protein-biuret-n.E. 0.127 Sigma) as the enzyme in solution. The enzyme-containing solution was prepared dissolving the enzyme in 0,2 M phosphate buffer, pH 8, to a final concentration of 1 microgram/ml.
The substrate solution was N-succinyl-L-alanyl-L-alanyl-L-alanyl-para-nitroanilide (available from Sigma cat. N.S. 4760). The substrate was dissolved in dimethylsulfoxide to a concentration of […] (125 mM).
The procedure to determine the antielastase activity consisted of the following steps: • 2,9 ml of the enzyme solution with antielastase activity were placed into a quartz cuvette with 10 mm optical path, then 0,5 ml of bidistilled water were added. This standard solution was subsequently added with the different solutions of the various inhibitors.
The test solutions (standard and standard + inhibitor) were incubated at 30°C for 10', then 20 µl of substrate were added and the solution in the cuvette was stirred. The UV spectrum was recorded at 410 nm for 10' with a Beckman mod. 24 spectrophotometer against a blank consisting of the same enzyme-free standard solution.

[1] = enzyme 1 microgram/ml in 0,2 M phosphate buffer, pH 8, incubated at 30°C for 10', read-out: I₅₀ (converted)

T1 sequence (P00772 27-266): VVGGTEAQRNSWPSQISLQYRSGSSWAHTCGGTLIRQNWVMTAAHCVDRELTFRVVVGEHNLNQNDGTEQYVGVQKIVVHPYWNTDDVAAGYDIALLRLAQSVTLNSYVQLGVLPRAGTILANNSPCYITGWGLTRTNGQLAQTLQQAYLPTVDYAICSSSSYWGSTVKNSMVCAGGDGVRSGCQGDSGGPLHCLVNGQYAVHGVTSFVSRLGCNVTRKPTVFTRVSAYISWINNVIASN

Structure (SMILES) | IC50 [1] | other results
C[C@@H]1O[C@@H](OC[C@H]2O[C@@H](Oc3c(-c4ccc(O)c(O)c4)oc4cc(O)cc(O)c4c3=O)[C@H](O)[C@@H](O)[C@@H]2O)[C@H](O)[C@H](O)[C@H]1O [Rutin] | 983 µM | 
COc1ccc([C@@H]2CC(=O)c3c(O)cc(O[C@@H]4O[C@H](CO[C@@H]5O[C@@H](C)[C@H](O)[C@@H](O)[C@H]5O)[C@@H](O)[C@H](O)[C@H]4O)cc3O2)cc1O [Esperidin] |  | IC50: 934 µM
COc1ccc(-c2cc(=O)c3c(O)cc(O[C@@H]4O[C@H](CO[C@@H]5O[C@@H](C)[C@H](O)[C@@H](O)[C@H]5O)[C@@H](O)[C@H](O)[C@H]4O)cc3o2)cc1OCCO [Hydrosmin, 3'-hydroxyethyldiosmin] | 955 µM | 
COc1ccc(-c2cc(=O)c3c(O)cc(O[C@@H]4O[C@H](CO[C@@H]5O[C@@H](C)[C@H](O)[C@@H](O)[C@H]5O)[C@@H](O)[C@H](O)[C@H]4O)cc3o2)cc1O [Diosmin] |  | antielastase activity (at the minimum concentration obtained (about 10 mg/ml)): absence of any antielastase activity
